# Assay results as given in patent publication US11466070B2, “Signalling system” (AUTOLUS LIMITED, priority 2016, dated 2022).
# System: BW5 T-cells
# Assay: Activation of TetCAR-expressing BW5 T-cells challenged with SupT1 cells expressing CD33, with increasing tetracycline
# Assay type: cell-based
# Details: TetCAR (anti-CD33) BW5 T-cells challenged with SupT1 cells expressing CD33
# Text: A bicistronic construct was expressed in BW5 T cells as a single transcript which self-cleaves at the 2A site to yield a signalling component which comprises TiP fused via a flexible linker to the endodomain of CD3-Zeta; and a receptor component which comprises a CD33 recognizing scFv, a spacer derived from the Fc domain of IgG1, a CD4 derived transmembrane and intracellular domain; and TetR (FIG. 6a). A control was also expressed which was identical except that TiP was absent from the signalling component (FIG. 6b).
# The BW5 T-cells were challenged with wild-type SupT1 cells or SupT1 cells engineered to express CD33 in the absence of tetracycline or in the presence of increasing concentrations of tetracycline.
# Control TetCAR which lacks the TiP domain was also transduced into BW5. Once again, these T-cells were challenged with wild-type SupT1 cells or SupT1 cells engineered to express CD33 in the absence or in the presence of increasing concentration of Tetracycline.
smiles,measurement,value
"CN(C)[C@@H]1C(O)=C(C(N)=O)C(=O)[C@@]2(O)C(O)=C3C(=O)c4c(O)cccc4[C@@](C)(O)[C@H]3C[C@@H]12 [tetracycline, reference compound]",concentration of tetracycline at which activation is fully inhibited,100 nM
